{"source": "patent US11185551B2", "about": "“Peripherally-restricted dual-acting kappa and delta opioid agonist for analgesia in pain states involving the inflammatory response” (Caventure Drug Discovery, Inc., priority 2017, dated 2021)", "key": {"[1]": {"tested_on": "CFA-induced mechanical hyperalgesia", "assay": "CFA model of rheumatoid arthritis pain in rats (joint compression thresholds)", "type": "in vivo, male Sprague-Dawley rats", "conditions": "for improvement of compression thresholds vs vehicle: 30 mg/kg PO", "experimental": "Following IACUC approval and acclimation, inflammatory arthritis pain was induced in 55 male, Sprague-Dawley rats by intracapsular injection of 50 μL of 100% complete Freund's adjuvant (CFA) into the tibio-tarsal joint of the left hind leg. Mechanical hyperalgesia was assessed via joint compression thresholds (JCTs), JCTs were determined prior to CFA injection and 14 days post-CFA, prior to study article administration. At that time, 50 animals that met the inclusion criterion were randomly assigned to 5 groups with 10 animals per group (Table 3). To further confirm the validity as a model for arthritic pain, the anti-inflammatory cyclooxygenase-2 inhibitor, celecoxib, was used as an active control.\n(§1) Animals were administered a single dose of test or control compound on day 0 (i.e., 14 days after administration of CFA) and thresholds were determined 1, 2, and 4 hours after compound administration. JCTs in test compound-treated animals were compared to those in vehicle-treated animals to determine the analgesic efficacy of the test compound. All behavioral evaluations were performed by a blinded observer.\nMechanical hyperalgesia was measured using a digital Randall-Selitto device (dRS; IITC Life Sciences©; Woodland Hills, Calif.; see Randall, L. O., and J. J. Selitto, “A Method for Measurement of Analgesic Activity on Inflamed Tissue.” Arch. Int. Pharmcodyn. 11 (1957): 409-19). Animals were allowed to acclimate to the testing room for a minimum of 15 minutes before testing. Animals were placed in a restraint sling that suspended the animal, leaving the hind limbs available for testing. The stimulus was applied to the ankle joint by a blunt tip and pressure was applied gradually over approximately 10 seconds. Joint compression threshold values were recorded at the first observed nocifensive behavior (vocalization, struggle, or withdrawal). One reading per joint was taken at each time point, and a maximum stimulus cutoff of 500 grams was used to prevent injury to the animal. The mean and standard error of the mean (SEM) were determined for ipsilateral and contralateral joints for each treatment group at each time point.\nAll testing was performed in a blinded manner, with all experimenters involved in the study being unaware of the group assignment of any animal they were testing. Animals were assigned to treatment groups based on Day 0 pre-dosing JCTs so that group means of the ipsilateral JCTs were approximately equal. Animals were ranked by ipsilateral JCT and treatments assigned randomly within stratified sub-groups according to the total number of treatment groups in the study. The volume of test or control article injected was 5 mL/kg. The animals were dosed in sequence based on animal number so that the distribution of treatment across a given set of animals was not predictable."}, "[2]": {"tested_on": "formalin-evoked spontaneous nociceptive behaviors", "assay": "Formalin model of pain in mice", "type": "in vivo, C57BL6 mice", "experimental": "The objective of this study was to evaluate the effects of Compound 1 and a peripherally-restricted kappa agonist (ICI204448) on formalin-evoked spontaneous nociceptive behaviors in mice. The study was performed by video recording of formalin-induced nociceptive behavior and then off-line scoring using a computer.\nSubcutaneous plantar injection of formalin causes a bi-phasic nocifensive behavioral response in rodents. The early phase (phase 1) lasts for about 5-10 minutes, following which an interphase occurs without any discernible nociceptive reactions, after which the late phase (phase 2) nociceptive reaction ensues continuing from about 20-60 min following formalin injection. Thus, phase 2 of the formalin model is a model of continuously present, persistent pain, and is widely used for rapid screening of novel analgesic compounds. The model encompasses inflammatory, neurogenic and central mechanisms of nociception, and the late phase (phase 2), in particular, is considered as a pharmacodynamic surrogate of central sensitization.\nIn the present study, the effects of Compound 1 and ICI204448 were assessed from 0-5 minutes for the early phase (phase 1) and from 20-35 minutes for the late phase (phase 2) of formalin-induced nociceptive behavior.\nFollowing IACUC approval and acclimation C57BL6 mice (Charles River Canada Inc.), 20-30 g, were randomly assigned into groups with 8 mice per group as provided in Table 1:\nAll animals were acclimated to the observation chamber for about 15 minutes immediately prior to formal in injection. […]\nFollowing injection of the formalin all animals were returned immediately to the observation chamber and formalin-evoked spontaneous nociceptive behaviors in the mice were continuously recorded for 0-40 minutes using a commercial camcorder. […]\nScoring from the recorded video files were done off-line using a computer by a blinded observer who has been validated to score such nociceptive behaviors in rodents. The total (cumulative) time spent in a 5-minute bin was recorded using a stop-watch for the following nociceptive behaviors: biting and licking of the formalin-injected paw.\nEffects of the ICI204448 or Compound 1 were assessed in the following time periods: 0-5 minutes for the early phase (phase 1) and 20-35 minutes for the late phase (phase 2).\nMice were injected with formalin in the hind paw after pretreatment with vehicle, high and low doses of a peripherally-restricted kappa opioid agonist (ICI204448) and high and low doses of the peripherally-restricted Compound 1. Pain was measured for 35 minutes after injection. Additionally, urine output was measured using metabolic cages in each group of mice. […]"}, "[3]": {"tested_on": "SNL-induced mechanical hyperalgesia", "assay": "Spinal nerve ligation (SNL) model for neuropathic pain in the rat (paw compression thresholds)", "type": "in vivo, male Sprague-Dawley rats", "experimental": "Following IACUC approval and acclimation, neuropathy was induced in 55 male, Sprague-Dawley rats by surgically ligating the 5th and 6th lumbar spinal nerves (L5 and L6), a procedure also known as spinal nerve ligation (SNL). Mechanical sensitivity was assessed via paw compression thresholds using a digital Randall-Selitto device. Thresholds were determined prior to surgery and 15 days post-surgery, prior to study article administration. At that time, 50 animals that met the inclusion criteria were assigned to 5 groups with 10 animals per group (Table 5). To further confirm the validity as a model for neuropathic pain, gabapentin was used as an active control.\nas §1, with “15” for “14”, “SNL)” for “administration of CFA)”, “Response thresholds” for “JCTs”\nMechanical hyperalgesia was measured using a digital Randall-Selitto device (dRS; IITC Life Sciences©; Woodland Hills, Calif.) (see Randall, L. O., and J. J. Selitto. “A Method for Measurement of Analgesic Activity on Inflamed Tissue.” Arch. Int. Pharmcodyn. 11 (1957): 409-19). Animals were allowed to acclimate to the testing room for a minimum of 15 minutes before testing. Animals were placed in a restraint sling that suspends the animal, leaving the hind limbs available for testing. The stimulus was applied to the plantar surface of the hind paw by a cone-shaped tip and pressure was applied gradually over approximately 10 seconds. Paw compression threshold values were recorded at the first observed nocifensive behavior (vocalization, struggle, or withdrawal). One reading per paw was taken at each time point, and a maximum stimulus cutoff of 300 grams was used to prevent injury to the animal. The mean and standard error of the mean (SEM) were determined for ipsilateral and contralateral paws for each treatment group at each time point.\nAll testing was performed in a blinded manner, with all experimenters involved in the study being unaware of the group assignment of any animal they were testing.\nAnimals were assigned to treatment groups based on Day 0 pre-dosing dRS paw compression thresholds so that group means of the ipsilateral paw compression thresholds were approximately equal. Animals were ranked by ipsilateral paw compression threshold measurement from lowest to highest and treatments assigned randomly within stratified sub-groups according to the total number of treatment groups in the study.\nThe volume of test or control article injected was 5 mL/kg. The animals were dosed in sequence based on animal number, so that the distribution of treatment across a given set of animals was not predictable."}, "[4]": {"tested_on": "osteolytic bone cancer pain induced by MRMT-1 inoculation", "assay": "MRMT-1 model of osteolytic bone cancer pain in the rat (percent weight bearing score)", "type": "in vivo, female Sprague-Dawley rats", "experimental": "Osteolytic bone cancer was produced by an injection of 3000 mammary gland carcinoma cells (MRMT-1) into the intramedullary space of the tibia. Animals received either vehicle or Compound 1 (10 mg/kg) intraperitoneally on Day 0. Morphine (6 mg/kg) served as the positive control for this study and was administered via subcutaneous injection. Bone cancer pain was assessed by measuring hind limb percent weight bearing scores (percent WBS) prior to inoculation (study day −21), and prior to administration (BL), 1, 2, and 4 hours after administration on Day 0.\nHind limb weight bearing scores (WBS) are measured using a Linton Incapacitance Tester (Stoelting Co.©, Wood Dale, Ill.; see Medhurst, S. J., K. Walker, M. Bowes, B. L. Kidd, M. Glatt, M. Muller, M. Hattenberger, J. Vaxelaire, T. O'Reilly, G. Wotherspoon, J. Winter, J. Green, and L. Urban. “A Rat Model of Bone Cancer Pain.” Pain 96 (2002): 129-40). Animals were allowed to acclimate to the testing room for a minimum of 15 minutes before testing. Animals are placed in an acrylic test chamber. When the animal is in the correct position in the test chamber an evaluation of force was taken, with the evaluation measuring the average force exerted individually by each hind paw over a three second interval. Three evaluations of force per animal are taken at each time point. The percent WBS for the injured leg is calculated for each evaluation of force using the following formula: […]\nThe mean of the 3% WBS values is taken as the % WBS for that time point. The mean and standard error of the mean (SEM) are determined for each treatment group at each time point.\nDosing: The volume of test or negative control article injected was 5 mL/kg via intraperitoneal injection or 2 mL/kg via subcutaneous injection for morphine. The animals were dosed in sequence based on animal number, so that the distribution of treatment across a given set of animals was not predictable (Table 7)."}}, "data": [{"smiles": "Cc1ccc(-c2cc(C(F)(F)F)nn2-c2ccc(S(N)(=O)=O)cc2)cc1", "note": "[Celecoxib, reference compound]", "values": [{"measurement": "improvement of compression thresholds vs vehicle", "setting": "[1]; 1-hour", "value": "did not significantly improve thresholds"}, {"measurement": "improvement of compression thresholds vs vehicle", "setting": "[1]; 2-hour and 4-hour", "value": "did show improvement compared to vehicle"}]}, {"smiles": "CC(C)C[C@H]1CN2C(=CC3=NC[C@H](C(C)C)N3C[C@@H]2Cc2ccc(O)cc2)N1CCc1ccccc1", "note": "[Compound 1, 4-(((2S,5S,8S)-2-isobutyl-8-isopropyl-1-phenethyl-2,3,5,6,8,9-hexahydro-1H-diimidazo[1,2-d:2′,1′-g][1,4]diazepin-5-yl)methyl)phenol]", "values": [{"measurement": "pain behaviors, effect of low dose", "setting": "[2]; 1 mg/kg IP, phase 2, compared with ICI204448 10 mg/kg", "value": "the same effect as a high dose of ICI204448"}, {"measurement": "pain response, effect of high dose", "setting": "[2]; 10 mg/kg IP, phase 2", "value": "complete elimination of the pain response"}, {"measurement": "time spent on pain (nociceptive) behaviors vs ICI204448", "setting": "[2]; 30-35 minutes, Compound 1 dose less than 10% of ICI204448 on a molar basis", "value": "at least as effective as ICI204448"}, {"measurement": "pain behaviors (biting and licking of formalin-injected paw)", "setting": "[2]; IP 30 min before formalin, 20-25, 25-30, 30-35 minutes (phase 2), compared with vehicle and ICI204448", "value": "reduced pain behaviors"}, {"measurement": "reversal of mechanical hyperalgesia (JCT)", "setting": "[1]; 1 mg/kg IP, 2-hour and 4-hour", "value": "significantly reversed mechanical hyperalgesia"}, {"measurement": "reversal of mechanical hyperalgesia (JCT)", "setting": "[1]; 5 mg/kg IP, 2-hour and 4-hour", "value": "significantly reversed mechanical hyperalgesia"}, {"measurement": "reversal of mechanical hyperalgesia (JCT)", "setting": "[1]; 10 mg/kg IP, 1, 2, and 4 hours post dose", "value": "significantly reversed mechanical hyperalgesia"}, {"measurement": "reversal in mechanical hyperalgesia compared with active control", "setting": "[1]; Compound 1 IP vs celecoxib 30 mg/kg PO", "value": "comparable to the active control, celecoxib"}, {"measurement": "reversal of SNL-induced mechanical hyperalgesia", "setting": "[3]; 1 mg/kg IP, any time point tested (1, 2, 4 hours)", "value": "did not significantly reverse SNL-induced mechanical hyperalgesia"}, {"measurement": "reversal of SNL-induced mechanical hyperalgesia", "setting": "[3]; 5 mg/kg IP, 1-hour", "value": "did not significantly reverse SNL-induced mechanical hyperalgesia"}, {"measurement": "reversal of SNL-induced mechanical hyperalgesia", "setting": "[3]; 5 mg/kg IP, 2-hour and 4-hour", "value": "did significantly reverse SNL-induced mechanical hyperalgesia"}, {"measurement": "reversal of SNL-induced mechanical hyperalgesia", "setting": "[3]; 10 mg/kg IP, 1-hour", "value": "did not significantly reverse SNL-induced mechanical hyperalgesia"}, {"measurement": "reversal of SNL-induced mechanical hyperalgesia", "setting": "[3]; 10 mg/kg IP, 2-hour and 4-hour", "value": "did significantly reverse SNL-induced mechanical hyperalgesia"}, {"measurement": "reversal of mechanical hyperalgesia compared with active control", "setting": "[3]; Compound 1 5 mg/kg and 10 mg/kg vs gabapentin 100 mg/kg", "value": "did not differ significantly from the active control, gabapentin"}, {"measurement": "reversal of hind limb weight bearing asymmetry vs pre-dosing baseline", "setting": "[4]; 10 mg/kg IP, 4 hours", "value": "significant reversal of hind limb weight bearing asymmetry"}]}, {"smiles": "NCC1(CC(=O)O)CCCCC1", "note": "[Gabapentin, reference compound]", "values": [{"measurement": "reversal of SNL-induced mechanical hyperalgesia", "setting": "[3]; 100 mg/kg IP, 1, 2, and 4-hours", "value": "significantly reversed SNL-induced mechanical hyperalgesia"}]}, {"smiles": "CN1CC[C@]23c4c5ccc(O)c4O[C@H]2[C@@H](O)C=C[C@H]3[C@H]1C5", "note": "[Morphine]", "values": [{"measurement": "reversal of hind limb weight bearing asymmetry vs pre-dosing baseline", "setting": "[4]; 6 mg/kg subcutaneous, 1 and 2 hours", "value": "time-dependent reversal of hind limb weight bearing asymmetry"}, {"measurement": "improvement in weight-bearing", "setting": "[4]; 6 mg/kg subcutaneous, 4-hours", "value": "did not produce significant improvement"}]}]}
